Measurements as given in PubChem BioAssay (NCI).
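Cultured in 96-well plates, cells were exposed to test compound for 48 hours across five concentrations. GI50 = concentration required for 50% inhibition of growth. At the TGI there is no net growth.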

Columns and labels:
Experiment in all cases: inhibition of tumour cell growth, NCI panel, 48 h
[1] = tested on: MDA-MB-231 breast
[2] = tested on: DU-145 prostate
[3] = tested on: NCI-H23 lung
[4] = tested on: MOLT-4 leukemia
[5] = tested on: RPMI-8226 leukemia
[6] = tested on: HCC-2998 colon
[7] = tested on: SK-OV-3 ovarian
[8] = tested on: HS 578T breast
[9] = tested on: PC-3 prostate
[10] = tested on: NCI/ADR-RES ovarian

Row | SMILES | GI50 [1] | TGI [1] | GI50 [2] | TGI [2] | GI50 [3] | TGI [3] | GI50 [4] | TGI [4] | GI50 [5] | TGI [5] | GI50 [6] | TGI [6] | GI50 [7] | TGI [7] | GI50 [8] | TGI [8] | GI50 [9] | TGI [9] | GI50 [10] | TGI [10]
1 | Cc1ccccc1NC(=O)N/C(N)=N/c1nc2ccccc2s1 | 0.892 µM | > 100 µM | 0.0833 µM | > 100 µM | 0.209 µM | > 100 µM | 0.0569 µM | > 100 µM | 0.0402 µM | 2.46 µM | 0.145 µM | > 100 µM | 0.416 µM | > 100 µM | 0.0494 µM | > 100 µM | 0.059 µM | > 100 µM | 0.0372 µM | 5.84 µM
2 | CCc1ccc(/C(C#N)=C/C=C/c2ccccc2)cc1 | 5.84 µM | > 76.7 µM | 4.22 µM | > 48.4 µM | 6.24 µM | > 100 µM | 6.87 µM | > 83.9 µM | 3.41 µM | > 69 µM | 6.65 µM | 68.3 µM | 3.08 µM | > 29.3 µM | 5.25 µM | > 100 µM | 3.15 µM | > 100 µM | 2.21 µM | > 100 µM
3 | COC(=O)C1=C2C3=C(C(=O)c4ccccc4C3=O)N(Cc3ccccc3)C2(OC(C)=O)C=CC1=O (stereo not drawn) |  | 8.05 µM | 14.8 µM | 61.9 µM | 11.8 µM | 76.6 µM | 0.846 µM | > 100 µM | 1.09 µM | 8.83 µM | 4.67 µM | 47.4 µM | 27.6 µM | > 100 µM | 22 µM | 71.3 µM | 2.36 µM | 19.2 µM | 8.56 µM | > 100 µM
4 | COc1ccccc1/C=C1\CCC(CN(C)C)C1=O (stereo not drawn) |  | 5.78 µM |  | 47.1 µM |  | 25.1 µM |  | 17.5 µM |  | 21.1 µM |  | 14.2 µM |  | 33.7 µM |  | > 45.8 µM |  | 18 µM |  | 90.3 µM
5 | COc1ccc(Nc2nc(NCc3ccccc3)c3ccccc3n2)cc1 | 4.3 µM | 16.9 µM | 8.75 µM | 21.9 µM | 3.02 µM | 13.7 µM | 2.12 µM | 5.28 µM | 1.85 µM | 4.85 µM | 2.9 µM | 7.6 µM | 10.4 µM | 22.1 µM | 10.9 µM | 30.5 µM | 2.87 µM | 12.6 µM | 4.14 µM | 23.1 µM
6 | CC(C)[C@@H]1NC(=O)[C@]2(C)CSC(=N2)c2csc(n2)CNC(=O)C[C@@H](/C=C/CCS)OC1=O | 0.317 µM | > 47.4 µM | 0.147 µM | > 100 µM | 0.219 µM | > 30.6 µM | 0.171 µM | > 100 µM | 0.563 µM | 6.62 µM | 0.089 µM | 0.442 µM | 0.0204 µM | 0.228 µM | 0.0471 µM |  | 0.0577 µM | > 100 µM | 2.67 µM | > 100 µM
7 | N#Cc1cc(-c2ccccc2)[nH]c1-c1nccc2ccccc12 | 19.4 µM | > 100 µM | 32.3 µM | > 100 µM | 6.31 µM | > 100 µM | 7.15 µM | 52.2 µM | 4.35 µM | 53.2 µM | 18.9 µM | > 100 µM | 17.8 µM | > 100 µM | 37.6 µM | > 100 µM | 11.8 µM | > 100 µM | 6.44 µM | > 100 µM
8 | Nc1nn(C(=O)Nc2ccc(Cc3ccccc3)cc2)c2ccc(Cl)cc12 | 9.48 µM | 50.2 µM | 11.7 µM | 33.8 µM | 5.72 µM | > 82.7 µM | 4.87 µM | 47 µM | 5.21 µM | 47.7 µM | 0.211 µM | 1.48 µM | 17.9 µM | 52 µM | 14.4 µM | 44.3 µM | 2.87 µM | > 66.5 µM | 7.89 µM | 51.6 µM
9 | Cn1c(=O)c(Sc2ccccc2F)cc2cnc(NC3CCOCC3)nc21 | > 25 µM | > 25 µM | > 25 µM | > 25 µM | > 25 µM | > 25 µM | > 25 µM | > 25 µM | > 25 µM | > 25 µM | > 25 µM | > 25 µM | > 25 µM | > 25 µM | > 25 µM | > 25 µM | > 25 µM | > 25 µM | > 25 µM | > 25 µM
10 | NC(=O)c1cccc(N)c1 | > 100 µM | > 100 µM | > 100 µM | > 100 µM | > 100 µM | > 100 µM | > 100 µM | > 100 µM | > 100 µM | > 100 µM | > 100 µM | > 100 µM | > 100 µM | > 100 µM | > 100 µM | > 100 µM | > 100 µM | > 100 µM | > 100 µM | > 100 µM
11 | COc1cccc(C2=NN(C(C)=O)C(c3cc(OC)c(OC)c(OC)c3)C2)c1 (stereo not drawn) | 8.82 µM | > 100 µM | 2.87 µM | > 100 µM | 3.48 µM | > 100 µM | 3.67 µM | > 100 µM | 1.08 µM | 4.36 µM | 2.26 µM | 16 µM | 3.04 µM | > 47.7 µM | 1.36 µM | 5.11 µM | 1.71 µM | > 100 µM | 1.9 µM | > 20.1 µM
12 | Cc1nc(NC(=O)COc2cccc(/C=C3\COc4ccccc4C3=O)c2)sc1C | 2.63 µM | 7.41 µM | 2.1 µM | 4.09 µM | 1.92 µM | 4.12 µM | 3.5 µM | > 100 µM | 14.8 µM | > 100 µM | 1.94 µM | 3.49 µM | 8.97 µM | 21.3 µM | 2.72 µM | 8.6 µM | 1.76 µM | 4.05 µM | 3.12 µM | 9.79 µM
